# Assay results from PubChem BioAssay (NCI).
#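 Interpolation was linear, between the two tested concentrations surrounding the appropriate level; five concentrations were tested over 48 hours in 96-well plates. Here, GI50 denotes the concentration required for 50% inhibition of growth. At the TGI there is no net growth.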
# Key:
# Test in all cases: inhibition of tumour cell growth, NCI panel, 48 h
# 786-0 renal = system: 786-0 renal
# NCI-H23 lung = system: NCI-H23 lung
# MDA-N = system: MDA-N
# SR leukemia = system: SR leukemia
# MCF7 breast = system: MCF7 breast
# NCI/ADR-RES ovarian = system: NCI/ADR-RES ovarian
# SK-MEL-5 melanoma = system: SK-MEL-5 melanoma
# MOLT-4 leukemia = system: MOLT-4 leukemia
# UACC-257 melanoma = system: UACC-257 melanoma
# A549 NSCLC = system: A549 NSCLC
# SNB-19 CNS = system: SNB-19 CNS
Structure (SMILES),TGI (786-0 renal) [µM],TGI (NCI-H23 lung) [µM],TGI (MDA-N) [µM],TGI (SR leukemia) [µM],TGI (MCF7 breast) [µM],TGI (NCI/ADR-RES ovarian) [µM],TGI (SK-MEL-5 melanoma) [µM],TGI (MOLT-4 leukemia) [µM],TGI (UACC-257 melanoma) [µM],GI50 (NCI-H23 lung) [µM],GI50 (SR leukemia) [µM],GI50 (MCF7 breast) [µM],GI50 (NCI/ADR-RES ovarian) [µM],GI50 (SK-MEL-5 melanoma) [µM],GI50 (MOLT-4 leukemia) [µM],GI50 (UACC-257 melanoma) [µM],GI50 (A549 NSCLC) [µM],TGI (A549 NSCLC) [µM],TGI (SNB-19 CNS) [µM],GI50 (SNB-19 CNS) [µM]
Oc1[nH]c2ccc(Br)cc2c1N=NC(=S)Nc1ccc(F)cc1,22.4,6.96,14.4,12.2,24.7,6.63,24.7,29.6,43,,,,,,,,,,,
COc1cc2cc(Oc3ccc(NC(=O)c4cc(C(F)(F)F)cc(C(F)(F)F)c4)cc3)c(C)nc2cc1OC,,> 50,,> 50,> 50,> 50,> 50,> 50,> 50,2.71,4.8,1.91,2.61,2.76,3.71,4.07,3.08,> 50,,
CC12CCC3C(CCC4CC(OC(=O)Cc5ccc(N(CCCl)CCCl)cc5)CCC43C)C1CCC(=O)N2 (stereo unspecified),28.8,25.8,,16.8,,,33.3,24.4,,,,,,,,,,29,32.5,
Cc1cn(-c2cc(C(=O)Nc3cccc(-n4ccc5c(NC(=O)c6ccccc6)nccc54)c3)cc(C(F)(F)F)c2)cn1,,19.9,,,2.39,> 33.4,0.76,10.6,19.7,1.06,0.14,0.361,1.13,0.195,0.531,0.51,0.502,5.34,25.5,0.579
COc1ccc(-c2c3c([nH]c(=S)c2C#N)CC(C)(C)CC3=O)cc1,> 100,> 100,> 100,> 100,> 100,,> 100,> 100,> 100,,,,,,,,,> 100,> 100,
COc1c(O)c2c3c(c(C)cc(O)c3c1O)C(=O)C(O)(C(C)(C)C(C)=O)C2=O (stereo unspecified),> 100,> 100,,,,,> 100,> 100,> 100,,,,,,,,,> 100,> 100,
CC1=C2C(=C[C@H]3[C@]4(C)CCCC(C)(C)[C@H]4CC[C@]34O[C@H]24)OC1=O,> 100,> 100,> 100,,> 100,> 100,> 100,> 100,> 100,,,,,,,,,> 100,> 100,
O=C(CN(c1ccccc1)c1ccccc1)N1c2ccccc2C2C=CC=CC21 (stereo unspecified),56.3,53.5,,> 21.4,,,29.9,> 22.6,50.1,,,,,,,,,> 54.9,38.1,
CC1(C)C2CC(=O)C1(C)C(O)C2Br (stereo unspecified),> 100,> 100,> 100,,> 100,> 100,> 100,> 100,,,,,,,,,,> 100,> 100,
CCN1CCCC(NCc2c3ccccc3c(CNC3CCCN(CC)C3)c3ccccc23)C1 (stereo unspecified),,34.8,,,15.2,79.7,27.4,14.8,26.4,,,,,,,,,> 100,65.8,
CCN(CC)CCCNC(=O)c1ccc([N+](=O)[O-])cc1O,> 100,> 100,,,,,> 100,> 100,> 100,,,,,,,,,> 100,> 100,
CCOC(=O)c1c(-c2ccccc2)c(-c2ccccc2)cn1C,> 10,> 10,> 10,> 10,,> 10,,> 10,> 10,,,,,,,,,> 10,> 10,
S=C(/N=c1\sc(Nc2ccc(Cl)cc2)nc2sc3c(c12)CCN(N1CCc2c(sc4nc(Nc5ccc(Cl)cc5)s/c(=N\C(=S)Nc5ccc(Cl)cc5)c24)C1)C3)Nc1ccc(Cl)cc1,31.9,> 100,30.8,,> 100,> 100,,> 100,> 100,,,,,,,,,> 100,> 100,
CC(C(=O)N1C(=O)N(C(=O)C(C)C(O)c2ccccc2)C2CCCCC21)C(O)c1ccccc1 (stereo unspecified),> 100,> 100,,> 100,,,> 100,87.1,,,,,,,,,,> 100,> 100,
Clc1ccc(CSCCc2ccncc2)cc1Cl,33.1,51.1,46.5,,35.7,50.5,29.9,38.1,> 100,,,,,,,,,96.2,35.6,
Cc1ccc([N+](=O)[O-])cc1N=NC(=O)NNc1cc([N+](=O)[O-])ccc1C,,> 100,82.8,> 100,67.3,> 100,34.9,41,,,,,,,,,,,> 100,
CCC1=CC2CN3Cn4c(c(COCc5c6n(c7ccccc57)CN5CC7C=C(CC)C5C6(C(=O)OC)C7)c5ccccc54)C(C(=O)OC)(C2)C13,> 100,> 100,,> 100,,,> 100,> 100,> 100,,,,,,,,,> 100,> 100,
CCCCn1cnc2c(c(CC#N)nn2-c2ccccc2)c1=N,> 100,> 100,> 100,,> 100,> 100,46.7,> 100,> 100,,,,,,,,,> 100,> 100,
CN(Cc1ccccc1)c1cc(=O)n(C)c(=O)[nH]1,> 100,> 100,> 100,,> 100,> 100,> 100,> 100,> 100,,,,,,,,,> 100,> 100,
O=C(NCCCN(CCCCN(CCCNC(=O)C(F)(F)F)Cc1ccc2ccccc2c1)Cc1ccc2ccccc2c1)C(F)(F)F,> 100,,,7.18,4.54,> 100,3.38,> 100,4.58,,,,,,,,,> 100,,
CC(=O)Oc1cc(C(F)(F)F)ccc1C(=O)OC1(C)OC(=O)c2ccc(C(F)(F)F)cc2O1 (stereo unspecified),> 100,> 100,> 100,,> 100,> 100,,> 100,> 100,,,,,,,,,> 100,> 100,
